In US7018824B2, “Mannosyl transfer with regeneration of GDP-mannose” (The Scripps Research Institute, priority 1993, dated 2006):
Like-named read-outs stand apart in the source and are kept apart here. Peptide text beside a SMILES is read from it. * marks the point of attachment. X1 = OCC1OC(*)C(O)C(O)C1O; Cbz = O=C(OCc1ccccc1)*

What was measured:
[1] = molecular target: T1, Recombinant α1,2-Mannosyltransferase (Saccharomyces cerevisiae, UniProt P27809); test: Substrate specificity and enzyme kinetics of the mannosyltransfer reaction (GDP-Man + acceptor); format: biochemical; settings: for substrate (acceptor) quality in words: 150 mM substrate, 3.3 mM GDP-Man; for Vrelative: calculated as the ratio of Vmax, ManαOMe = 1.0
T1 construct: made in house; host or cells: E. coli XL1-Blue, periplasmic fraction
T1 sequence (P27809 31-442): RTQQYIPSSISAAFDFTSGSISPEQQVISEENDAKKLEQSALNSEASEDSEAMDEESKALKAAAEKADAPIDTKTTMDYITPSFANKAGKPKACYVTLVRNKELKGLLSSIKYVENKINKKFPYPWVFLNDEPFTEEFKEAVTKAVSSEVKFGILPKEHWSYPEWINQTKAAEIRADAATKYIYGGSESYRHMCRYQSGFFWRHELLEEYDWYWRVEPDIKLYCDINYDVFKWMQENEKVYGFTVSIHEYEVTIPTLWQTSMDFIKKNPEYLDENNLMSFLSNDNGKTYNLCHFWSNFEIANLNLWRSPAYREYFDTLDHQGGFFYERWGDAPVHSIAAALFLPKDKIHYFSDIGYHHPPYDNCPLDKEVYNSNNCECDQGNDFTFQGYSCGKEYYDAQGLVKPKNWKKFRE
Protocol: GDP-Man (^14C) (10 mM, 10 mL), α-methyl mannopyranoside (500 mM, 10 μL) and the enzyme solution (10 μL) were mixed in a buffer containing 50 mM HEPES (pH 7.2), 0.1 percent Triton and 10 mM MnCl2. The mixture was incubated at 30.0° C. for one hour. The unreacted GDP-mannose was removed by adding QAE-Sephadex (400 μL) to the solution. After the resin was removed by centrifugation, the radioactivity of the solution was counted in 10 mL of scintillation fluid. Controls were carried out by omitting the acceptor or the enzyme. The substrate specificity was determined in a 30 μL assay solution containing 150 mM substrate, 3.3 mM GDP-Man, overproduced α1,2-ManT, 50 mM HEPES (pH 7.2), 0.1 percent Triton and 10 mM MnCl2. The mixture was incubated at 30° C. for 1 hour and the formation of product was determined by the radioactivity assay. Initial velocities were measured as described in the enzyme assay at various concentrations of acceptors for kinetic studies. From the Lineweaver-Burk plots of the data, Km and Vmax were determined.

[2] = test system: native α1,2-mannosyltransferase; settings: native enzyme, literature value for comparison; cited from earlier work
Enzyme stability study = format: physicochemical; settings: after four days at 20° C. in 100 mM Tris-HCl, 5 mM MgCl2 buffer, pH 7.4
Protocol: The enzyme was incubated at room temperature in 100 mM Tris-HCl buffer, 5 mM MgCl2, pH 7.4, containing 0.5 mM dithiothreitol. At different time intervals, 10 μL aliquots were taken and assayed for mannosyltransferase activity as described above.

[3] = Organic solvent effect study on the mannosyltransfer reaction; format: biochemical
Protocol: GDP-Man (^14C) (10 mM, 10 μL) and methyl mannopyranoside (500 mM, 10 μL) were mixed with a certain volume of an organic solvent and H2O to achieve the desired organic solvent concentration. The enzyme (10 μL) was then added to the mixture. The solution was incubated at 30.0° C. for 1 hour. The enzyme activity was measured as described in the enzyme assay section.

[4] = α1,2-Mannosyltransferase activity assay; format: biochemical; settings: after Superose and Mono Q FPLC purification; one unit transfers 1.0 μmol mannose per minute at 30° C.
Protocol: GDP-Man (^14C) (10 mM, 10 mL), α-methyl mannopyranoside (500 mM, 10 μL) and the enzyme solution (10 μL) were mixed in a buffer containing 50 mM HEPES (pH 7.2), 0.1 percent Triton and 10 mM MnCl2. The mixture was incubated at 30.0° C. for one hour. The unreacted GDP-mannose was removed by adding QAE-Sephadex (400 μL) to the solution. After the resin was removed by centrifugation, the radioactivity of the solution was counted in 10 mL of scintillation fluid. Controls were carried out by omitting the acceptor or the enzyme.

[5] = acceptor with GDP-Man, Lineweaver-Burk plots, 30° C., pH 7.2, read-out: Km (acceptor)
[6] = acceptor substrate of recombinant enzyme, read-out: Km value

Molecule: O=C[C@@H](O)[C@@H](O)[C@H](O)CO [D-lyxose, reference compound]
- substrate (acceptor) quality in words ([1]; recombinant α1,2-ManT): not substrates

Molecule: OC[C@H]1NC[C@@H](O)[C@@H](O)[C@@H]1O [1-deoxymannojirimycin, reference compound]
- inhibitor of α1,2-ManT in words ([1]; recombinant α1,2-ManT): nor an inhibitor
- substrate (acceptor) quality in words ([1]; recombinant α1,2-ManT): neither a substrate

Molecule: COC(=O)C(NC(=O)C(NC(=O)OCc1ccccc1)C(C)OC1OC(CO)C(O)C(O)C1OC1OC(CO)C(O)C(O)C1O)C(C)C (stereo not shown) [Compound 11, Cbz-Thr(αManα1,2Man)-Val-OMe]
- Km [1, 5]: 26 mM
- Vrelative ([1]; acceptor with GDP-Man): 0.17

Molecule: Boc-Try-Thr(α-Man)-Val-OMe [Compound 10]
- Km [1, 6]: 0.7 mM
- Km [1, 5]: 0.7 mM
- Vrelative ([1]; acceptor with GDP-Man): 0.35
- Km, times less than that of Compound 7 ([1]; ratio of Km values): 10 times
- Km, times smaller than that of ManαOMe (Compound 1) ([1]; ratio of Km values): 80 times

Molecule: O=C[C@@H](O)[C@H](O)[C@H](O)CO [D-arabinose, reference compound]
- substrate (acceptor) quality in words ([1]; recombinant α1,2-ManT): not substrates

Molecule: CO[C@H]1O[C@H](CO)[C@@H](O)[C@H](O)[C@@H]1O[C@H]1O[C@H](CO)[C@@H](O)[C@H](O)[C@@H]1O [Compound 3, Manα1,2ManαOMe]
- Km [1, 6]: 28 mM
- Km [1, 5]: 28 mM
- Vrelative ([1]; acceptor with GDP-Man): 0.62

Molecule: COC(=O)C(NC(=O)C(N)C(C)OC1OC(CO)C(O)C(O)C1O)C(C)C (stereo not drawn) [Compound 8, Thr(α-Man)-Val-OMe]
- Vrelative ([1]; acceptor with GDP-Man): 0.68
- substrate (acceptor) quality in words ([1]; recombinant α1,2-ManT): good substrates

Molecule: CO[C@H]1O[C@H](CN)[C@@H](O)[C@H](O)[C@@H]1O [Compound 6, 6-Amino-6-deoxy-ManαOMe]
- Vrelative ([1]; acceptor with GDP-Man): 0.07
- substrate (acceptor) quality in words ([1]; recombinant α1,2-ManT): poor substrates

Molecule: O=C[C@@H](O)[C@H](O)[C@@H](O)[C@H](O)CO [D-idose, reference compound]
- substrate (acceptor) quality in words ([1]; recombinant α1,2-ManT): not substrates

Molecule: Cbz-Thr(α-Man)-Val-OMe [Compound 7]
- Km [1, 5]: 7.8 mM
- Vrelative ([1]; acceptor with GDP-Man): 0.71
- substrate (acceptor) quality in words ([1]; recombinant α1,2-ManT): comparable with ManαOMe as an acceptor

Molecule: CO[C@H]1O[C@H](CO)[C@@H](O)[C@H](O)[C@@H]1O [Compound 1, α-methylmannopyranoside, reference compound]
- Km [1, 6]: 57 mM
- Km [1, 5]: 57 mM
- Vrelative ([1]; acceptor with GDP-Man): 1.0

Molecule: O=C[C@@H](O)[C@@H](O)[C@H](O)[C@H](O)CO [Compound 2, mannose]
- Km (acceptor) ([1]; acceptor with GDP-Man, Lineweaver-Burk plots, 30° C., pH 7.2): 193 mMO
- Vrelative ([1]; acceptor with GDP-Man): 0.46
- Km [2]: 100 mM

Molecule: CO[C@H]1O[C@H](C)[C@@H](O)[C@H](O)[C@@H]1O [Compound 4, Methyl 6-Deoxy-α-D-mannopyranoside]
- Vrelative ([1]; acceptor with GDP-Man): 0.06
- substrate (acceptor) quality in words ([1]; recombinant α1,2-ManT): poor substrates

Molecule: CO[C@H]1O[C@H](CN=[N+]=[N-])[C@@H](O)[C@H](O)[C@@H]1O [Compound 5, 6-Azido-6-deoxy-ManαOMe]
- Vrelative ([1]; acceptor with GDP-Man): 0.02
- substrate (acceptor) quality in words ([1]; recombinant α1,2-ManT): poor substrates

Molecule: O=[N+]([O-])c1ccc(O[C@H]2O[C@H](CO)[C@@H](O)[C@H](O)[C@@H]2O)cc1 [Compound 13, p-nitrophenyl α-mannopyranoside, reference compound]
- Vrelative ([1]; acceptor with GDP-Man): 0.00
- substrate (acceptor) quality in words ([1]; recombinant α1,2-ManT): not substrates

Molecule: O=C[C@@H](O)[C@H](O)[C@H](O)[C@H](O)CO [D-altrose, reference compound]
- substrate (acceptor) quality in words ([1]; recombinant α1,2-ManT): not substrates

Molecule: CO[C@H]1O[C@H](COS(=O)(=O)c2ccc(C)cc2)[C@@H](O)[C@H](O)[C@@H]1O [Compound 12, 6-Tosyl-ManαOMe]
- Vrelative ([1]; acceptor with GDP-Man): 0.00

Molecule: CC(NC(=O)CNC(=O)C(NC(=O)C(NC(=O)OCc1ccccc1)C(C)OC1OC(CO)C(O)C(O)C1O)C(C)C)C(N)=O (stereo not drawn) [Compound 9, Cbz-Thr(α-Man)-Val-Gly-Ala-NH2] (Cbz-T(X1)VGA-NH2; configuration not given here)
- Vrelative ([1]; acceptor with GDP-Man): 0.55
- substrate (acceptor) quality in words ([1]; recombinant α1,2-ManT): good substrates

Molecule: O=C[C@@H](O)[C@@H](O)[C@@H](O)[C@H](O)CO [D-talose, reference compound]
- substrate (acceptor) quality in words ([1]; recombinant α1,2-ManT): not substrates

B1: recombinant α1,2-ManT: water-dispersible recombinant α1,2-mannosyltransferase catalytic domain, residues about 31-442 of the S. cerevisiae enzyme, expressed in E. coli (protein)
chain: T1 sequence (P27809 31-442)
- activity retained (Enzyme stability study): more than 90%
- remaining activity ([3]; 10-percent DMF-buffer solution): about 80%
- remaining activity ([3]; 10 percent acetonitrile-buffer solution): about 50%
- loss of activity ([3]; DMF or acetonitrile increased to 20 percent): 95%
- tolerated acetone concentration ([3]; acetone-buffer solution): ≤ 20%
- tolerated methanol concentration ([3]; methanol-buffer solution): up to 30%
- specific activity [4]: about 1 unit/mg
